Assay: Solubility test of PrdP2Phen by LC-MS analysis
Format: physicochemical
Conditions: 1 mg in 1 mL of water, ultrasonic waves 5 minutes, filtrate analysed by LC-MS; one atmosphere, room temperature
Procedure: Next, a solubility test of PrdP2Phen was performed. Note that the solubility test was conducted at a pressure of one atmosphere at room temperature (RT).
In the LC-MS analysis, liquid chromatography (LC) separation was carried out with ACQUITY UPLC (manufactured by Waters Corporation), and MS analysis (mass spectrometry) was carried out with Xevo G2 Tof MS (manufactured by Waters Corporation). Acquity UPLC BEH C8 (2.1×100 mm, 1.7 μm) was used as a column for the LC separation. Acetonitrile was used for Mobile Phase A and a 0.1% aqueous solution of formic acid was used for Mobile Phase B. The injection amount of the sample was 5.0 μL. Note that in the analysis, the wavelength of a photodiode array detector was set to 263 nm±1 nm.
In a 5-mL sample bottle, 1 mg of PrdP2Phen was put and 1 mL of water was added thereto. This mixture was irradiated with ultrasonic waves for 5 minutes. This mixture was filtered through a membrane filter to remove the solid, and the resulting filtrate was diluted by five times with acetonitrile. The obtained solution was subjected to LC-MS analysis.

solubility in water: extremely low solubility in water
Compound: c1cc(-c2ccc(N3CCCC3)cc2)c2ccc3c(-c4ccc(N5CCCC5)cc4)ccnc3c2n1 [PrdP2Phen, 4,7-bis[4-(1-pyrrolidinyl)phenyl]-1,10-phenanthroline]

Source: patent publication US20250212681A1, “Light-Emitting Device” (Semiconductor Energy Laboratory Co., Ltd., priority 2023, published 2025)
